US20200297684A1, “TOPICAL COMPOSITIONS AND METHODS FOR TREATING ACNE VULGARIS” (Bausch Health Ireland Limited, priority 2019, published 2020)
Several values for one entry are separate records, joined by “and”; a condition that tells them apart may be missing. Equal values may be shown once.

What was measured:
[1] = Chemical stability of tretinoin in an admixture with benzoyl peroxide at room condition and 32° C., under room light; type: physicochemical; details: for Assay (% label claim), 32° C., Room Light / Assay (% label claim), Room Condition: tretinoin in admixture with benzoyl peroxide
Description: The chemical stability of tretinoin in an admixture with benzoyl peroxide of the present invention at room temperature and 32 degrees C., under room light condition is shown in Table 1.
More than 97 and 96 percent of treinoin in the original admixture of the present invention remains after 24 hours at room condition and 32° C., under room light, respectively. Such stability ensures that the therapeutic efficacy of tretinoin is not diminished between once-a-day applications.

[2] = equal parts of 0.05% tretinoin gel and gel containing 5% BPO and clindamycin phosphate; 32° C. for 7 hours; cited from earlier work
[3] = time 0 hr, replicates top/middle/bottom

time for which tretinoin in the admixture is chemically stable ([1]; admixture of tretinoin and benzoyl peroxide compositions, even at 32° C. under room light condition): at least 24 hours
percent of tretinoin in the original admixture remaining ([1]; after 24 hours at 32° C., under room light): > 96%
percent of tretinoin in the original admixture remaining ([1]; after 24 hours at room condition): More than 97%
Assay (% label claim), Room Condition ([1]; time 8 hr): 99.5 % label claim
SMILES: CC1=C(/C=C/C(C)=C/C=C/C(C)=C/C(=O)O)C(C)(C)CCC1 [Tretinoin, tretinoin]
Assay (% label claim), 32° C., Room Light [1, 3]: 98.8 % label claim and 97.1 % label claim and 98.3 % label claim
Assay (% label claim), Room Condition [1, 3]: 98.8 % label claim and 97.1 % label claim and 98.3 % label claim
Assay (% label claim), 32° C., Room Light ([1]; time 1 hr): 98.5 % label claim and 97.1 % label claim
Assay (% label claim), Room Condition ([1]; time 1 hr): 96.8 % label claim and 97.2 % label claim
Assay (% label claim), Room Condition ([1]; time 3 hr): 97.8 % label claim and 97.5 % label claim
Assay (% label claim), 32° C., Room Light ([1]; time 4 hr): 98.6 % label claim and 98.2 % label claim
Assay (% label claim), Room Condition ([1]; time 5 hr): 97.0 % label claim and 97.3 % label claim
Assay (% label claim), 32° C., Room Light ([1]; time 12 hr): 98.9 % label claim and 97.0 % label claim
Assay (% label claim), Room Condition ([1]; time 12 hr): 97.3 % label claim and 97.8 % label claim
Assay (% label claim), 32° C., Room Light ([1]; time 24 hr): 96.6 % label claim and 97.8 % label claim
Assay (% label claim), Room Condition ([1]; time 24 hr): 98.1 % label claim and 97.4 % label claim
stability of tretinoin in the mixture [2]: stable
